According to publication PMC7142633, “Impact of B-Ring Substitution and Acylation with Hydroxy Cinnamic Acids on the Inhibition of Porcine α-Amylase by Anthocyanin-3-Glycosides” (Foods, 2020):
Read-outs that look alike come from different tables or passages of the source. Marks after values point to notes of the source that are not given here.

Target: T1, α-amylase from porcine pancreas (Sus scrofa, UniProt P00690)
T1 construct: A saline suspension of α-amylase from porcine pancreas; purchased Sigma Aldrich (Steinheim, Germany) Lot #SLBN9170V (catalogue number not given); host or cells: porcine pancreas (tissue-derived)
T1 sequence (P00690 16-511): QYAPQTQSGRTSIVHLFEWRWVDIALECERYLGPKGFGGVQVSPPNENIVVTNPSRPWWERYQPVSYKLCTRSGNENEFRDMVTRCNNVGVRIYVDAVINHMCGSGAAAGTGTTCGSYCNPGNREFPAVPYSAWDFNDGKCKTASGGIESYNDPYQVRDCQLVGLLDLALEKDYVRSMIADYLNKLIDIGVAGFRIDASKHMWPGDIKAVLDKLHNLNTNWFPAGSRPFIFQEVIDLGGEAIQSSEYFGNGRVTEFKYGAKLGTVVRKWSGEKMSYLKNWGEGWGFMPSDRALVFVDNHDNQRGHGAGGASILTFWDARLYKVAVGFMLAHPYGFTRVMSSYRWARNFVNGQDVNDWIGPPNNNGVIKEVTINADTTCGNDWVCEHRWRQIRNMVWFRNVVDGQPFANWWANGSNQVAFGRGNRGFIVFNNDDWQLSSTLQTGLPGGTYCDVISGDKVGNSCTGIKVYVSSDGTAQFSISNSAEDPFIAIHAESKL
Test: α-amylase enzyme activity assay, GalG2CNP conversion, UV/Vis detection of CNP at 405 nm
Type: biochemical
Settings: for IC50: read-out: IC50 (Cheng−Prussoff, Equation (9)); for Kmapp / vmaxapp: Michaelis Menten fit
Experimental: The enzyme activity assay, […], was established by Homoki and co-workers and already used by the authors to evaluate the inhibitory strength of different phenolic structures. To enable the evaluation of the result obtained in the present study compared to the non-anthocyanin phenolics investigated previously, the assay conditions were identical. In short, to 12 different GalG2CNP concentrations ([S] = 0−2000 µM) in MES^+ buffer, inhibitor [I] and 50 µL enzyme solution (c = 1.51 units/~100 pM, on the basis of supplier information) were mixed in a microtiter plate (Greiner BioOne, Frickenhausen, Germany; transparent, F-bottom). For blanks, the enzyme solution was substituted with MES^+ buffer. The final volume per well was 250 µL. To quantify the reaction product, a linear calibration with eight different CNP concentrations in the range of 0−35 µM was performed for each plate. Dilutions of the anthocyanin stock solutions (0.1% HCl) were equilibrated at pH 6.1 for one hour. Final inhibitor concentrations were limited due to its strong absorption at 405 nm to 12.5, 25, and 50 µM. For each anthocyanin structure, the assay was conducted on two to three different days with freshly prepared stocks of substrate, enzyme, and inhibitor.
In addition to the Michaelis Menten constant (Km) and the maximal conversion rate (vmax) values (Table S1), inhibition constants (Kic, Kiu) were calculated by fitting the data by two approaches: (i) According to the mixed inhibition equation (Equation (4)) or competitive inhibition equation (Equation (5)), applying an optimal global fit containing data from all inhibitor concentrations including the control ([I] = 0 µM); and (ii) by an independent fit according to the Michaelis Menten equation (Equation (6)), providing the apparent values Km^app and Vmax^app (Table S2) for each inhibitor concentration, which were then used to calculate the inhibition constants (Equations (7) and (8)). (4) v0= vmax/Km/[S] · (1+[I]/Kic)+(1+[I]/Kiu), (5) v0=vmax/Km/[S] · ( 1+[I]/Kic)+1, (6) v0=vmax · [S]/Km+[S], (7) Kic=vmax^app/Km^app · [I]/vmax/Km−vmax^app/Km^app, (8) Kiu=vmax^app · [I]/vmax− vmax^app.
The IC50 values of the different anthocyanins were derived from the inhibition constants for different substrate concentrations by the Cheng−Prusoff equation (Equation (9)). (9) IC50=(Km+[S])/Km/Kic+[S]/Kiu.
• KM: Michaelis Menten constant (µM) • vmax: Maximal conversion rate of the uninhibited reaction (µM/min) • v0: Observed conversion rate at given substrate and inhibitor concentration (µM/min) • [S]: Substrate concentration • [I]: Inhibitor concentration • Kic: Inhibitor constant, reflecting the competitive inhibition in the equation (µM) • Kiu: Inhibitor constant, reflecting the uncompetitive inhibition in the equation (µM) • vmax^app: Calculated maximal conversion rate, when the Michaelis Menten equation is used on an inhibited curve (µM/min) • Km^app: Calculated Michaelis Menten constant, when the Michaelis Menten equation is used on an inhibited curve (µM) • IC50: Half maximal inhibitory concentration (inhibitor concentration needed to achieve 50% inhibition; it is dependent on the substrate concentration) (µM)
For data analyses and calculations, Origin 2018b (OriginLab, software extension Enzyme Kinetics) was used. The Levenberg−Marquardt algorithm procedure was chosen for iteration. All assays were performed in two independent replicates at different dates. Values are expressed in arithmetic means ± average deviation (AD). The statistical significance and differences between groups were analyzed by one-way analysis of variance (ANOVA), followed by Tukey’s test. Differences were considered significant when p < 0.05. Data were processed using Microsoft Excel® (2010).

## COc1cc(-c2[o+]c3cc(O)cc(O)c3cc2O[C@@H]2O[C@H](CO)[C@@H](O)[C@H](O)[C@H]2O)ccc1O [Peo-glc, peonidin-3-glucoside]
(i) Kic and Kiu by global fit, [S] 10 µM
  IC50: 112 ± 40 µM
(i) Kic and Kiu by global fit, [S] 100 µM
  IC50: 134 ± 46 µM
(i) Kic and Kiu by global fit, [S] 10^3 µM
  IC50: 209 ± 65 µM
(i) Kic and Kiu by global fit, [S] 10^6 µM
  IC50: 258 ± 78 µM
(i) global fit, Equation (4)
  Kic/Kiu: 0.42 ± 0.23 ^a
(i) global fit, mixed inhibition Equation (4), read-out: Kic
  Ki: 109 ± 39 µM
(i) global fit, mixed inhibition Equation (4), read-out: Kiu
  Ki: 258 ± 78 µM
(ii) Kic and Kiu by independent fit, [S] 10 µM
  IC50: 121 ± 42 µM
(ii) Kic and Kiu by independent fit, [S] 100 µM
  IC50: 142 ± 49 µM
(ii) Kic and Kiu by independent fit, [S] 10^3 µM
  IC50: 212 ± 69 µM
(ii) Kic and Kiu by independent fit, [S] 10^6 µM
  IC50: 254 ± 82 µM
(ii) independent Michaelis Menten fit (Equation (6)), calculation by Equation (7), read-out: Kic
  Ki: 118 ± 42 µM
(ii) independent Michaelis Menten fit (Equation (6)), calculation by Equation (8), read-out: Kiu
  Ki: 254 ± 82 µM
(ii) independent fit, Equations (7) and (8)
  Kic/Kiu: 0.43 ± 0.04 **^a
Inhibitor c 25 µM
  Kmapp: 242 ± 8 µM
  vmaxapp: 0,74 ± 0,14 µM/min
Inhibitor c 50 µM
  Kmapp: 256 ± 7 µM
  vmaxapp: 0,65 ± 0,05 µM/min
Inhibitor c 12,5 µM
  Kmapp: 211 ± 15 µM
  vmaxapp: 0,77 ± 0,12 µM/min
From apparent values, inhibitor c 25 µM, read-out: Kic
  Ki: 107 ± 15 µM
From apparent values, inhibitor c 25 µM, read-out: Kiu
  Ki: 250 µM
From apparent values, inhibitor c 50 µM, read-out: Kic
  Ki: 112 ± 45 µM
From apparent values, inhibitor c 50 µM, read-out: Kiu
  Ki: 262 ± 92 µM
From apparent values, inhibitor c 12,5 µM, read-out: Kic
  Ki: 180 µM
From apparent values, inhibitor c 12,5 µM, read-out: Kiu
  Ki: 360 µM
Mean over inhibitor c 12,5, 25, 50 µM (Supplementary 2), read-out: Kic mean ± SD
  Ki: 133 ± 40 µM
Mean over inhibitor c 12,5, 25, 50 µM (Supplementary 2), read-out: Kiu mean ± SD
  Ki: 290 ± 61 µM
